The values that follow come from ChEMBL document CHEMBL4396971, “Discovery of potent and orally bioavailable indazole-based glucagon receptor antagonists for the treatment of type 2 diabetes” (Bioorg Med Chem Lett, 2019).

Activity calls are given as the source filed them. Bounds are passed on as bounds.

Data set [1] in a line: Clearance in Sprague-Dawley rat at 2 mg/kg, iv or 10 mg/kg, po. The settings on record: in vivo. It counts as ADME, organism-based.
The subject of data set [2] is Canis familiaris. Description: Antidiabetic activity in Beagle dog assessed as reduction in blood glucose AUC at 10 mg/kg, po administered via gavage as single dose 90 mins prior to glucagon challenge by glucometer analysis. It counts as functional, organism-based. Conditions: Canis lupus familiaris.
The nature of data set [3]: AUClast in C57 mouse at 5 mg/kg, iv or 20 mg/kg, po. It counts as ADME, organism-based. The settings on record: in vivo.
Data set [4] can be described thus: Antagonist activity at GCGR in dog hepatocytes assessed as inhibition of glucagon-induced cAMP by LANCE TR-FRET assay. It counts as cell-based, Canis lupus familiaris. (In general: Time-resolved FRET reads energy transfer from a long-lived donor to a nearby acceptor.)
Data set [5] in a line: Oral bioavailability in dog at 10 mg/kg. It counts as ADME, organism-based, Canis lupus familiaris. The settings on record: in vivo.
A short description of data set [6]: Clearance in dog at 2 mg/kg, iv or 10 mg/kg, po. In kind it is ADME, organism-based, Canis lupus familiaris. The settings on record: in vivo.
A short description of data set [7]: Half life in dog at 10 mg/kg, po. It counts as ADME, organism-based, Canis lupus familiaris. Conditions: in vivo.
Data set [8] concerns Canis familiaris. As to the kind of experiment: Antidiabetic activity in Beagle dog assessed as reduction in blood glucose level at 10 mg/kg, po administered via gavage as single dose 90 mins prior to glucagon challenge measured up to 60 mins post glucagon challenge by glucometer analysis. It counts as functional, organism-based. Conditions: Canis lupus familiaris.
Data set [9] is described as follows: Oral bioavailability in Sprague-Dawley rat at 10 mg/kg. It counts as ADME, organism-based. Conditions: in vivo.
The nature of data set [10]: Stability in rat liver microsomes assessed as parent compound remaining at 1 uM incubated for 10 mins. Conditions: read-out: Stability. In kind it is ADME, Microsome.
The next data set has as its target T1, Cytochrome P450 1A2 (Homo sapiens, UniProt P05177).
T1 sequence (P05177 whole entry): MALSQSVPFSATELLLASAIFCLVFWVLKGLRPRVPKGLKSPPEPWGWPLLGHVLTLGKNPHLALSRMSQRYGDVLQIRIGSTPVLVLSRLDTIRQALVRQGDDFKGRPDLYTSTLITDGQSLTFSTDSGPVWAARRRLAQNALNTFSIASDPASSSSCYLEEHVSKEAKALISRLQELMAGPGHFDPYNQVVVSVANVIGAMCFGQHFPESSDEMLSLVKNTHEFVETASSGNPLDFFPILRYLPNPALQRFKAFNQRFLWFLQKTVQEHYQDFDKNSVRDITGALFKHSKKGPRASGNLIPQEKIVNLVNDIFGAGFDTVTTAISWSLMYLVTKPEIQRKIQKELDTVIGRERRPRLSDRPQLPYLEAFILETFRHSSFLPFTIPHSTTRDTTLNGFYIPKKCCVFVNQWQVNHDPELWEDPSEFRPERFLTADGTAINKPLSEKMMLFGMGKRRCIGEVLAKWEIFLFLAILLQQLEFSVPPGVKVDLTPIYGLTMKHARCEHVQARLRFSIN
Description: Inhibition of CYP1A2 (unknown origin) using phenacetin as substrate. It counts as ADME.

Data set [11] can be described thus: AUClast in dog at 2 mg/kg, iv or 10 mg/kg, po. It counts as ADME, organism-based, Canis lupus familiaris. Conditions: in vivo.
Data set [12] concerns the target T2, Cytochrome P450 3A4 (Homo sapiens, UniProt P08684). As to the kind of experiment: Inhibition of CYP3A4 (unknown origin) using testosterone as substrate. In kind it is ADME.
Data set [13] is described as follows: Cmax in Sprague-Dawley rat at 2 mg/kg, iv or 10 mg/kg, po. It counts as ADME, organism-based. The settings on record: in vivo.
The nature of data set [14]: Stability in dog liver microsomes assessed as parent compound remaining at 1 uM incubated for 10 mins. The settings on record: liver microsomes, read-out: Stability. It counts as ADME, Canis lupus familiaris, Microsome. On the technique in general: Liver microsomes are vesicles of endoplasmic reticulum, rich in cytochrome P450 enzymes.
Data set [15] is described as follows: Half life in C57 mouse at 5 mg/kg, iv. The settings on record: in vivo. In kind it is ADME, organism-based.
Data set [16] is described as follows: Half life in C57 mouse at 20 mg/kg, po. It counts as ADME, organism-based. Conditions: in vivo.
Data set [17] is described as follows: Volume of distribution at steady state in C57 mouse at 5 mg/kg, iv or 20 mg/kg, po. Conditions: in vivo, read-out: Vdss. It counts as ADME, organism-based.
The nature of data set [18]: Clearance in C57 mouse at 5 mg/kg, iv or 20 mg/kg, po. It counts as ADME, organism-based. The settings on record: in vivo.
A short description of data set [19]: Half life in Sprague-Dawley rat at 2 mg/kg, iv. In kind it is ADME, organism-based. Conditions: in vivo.
The nature of data set [20]: Stability in human liver microsomes assessed as parent compound remaining at 1 uM incubated for 10 mins. The settings on record: read-out: Stability. It counts as ADME, Microsome.
The nature of data set [21]: Cmax in dog at 2 mg/kg, iv or 10 mg/kg, po. In kind it is ADME, organism-based, Canis lupus familiaris. Conditions: in vivo.
A short description of data set [22]: Half life in Sprague-Dawley rat at 10 mg/kg, po. In kind it is ADME, organism-based. Conditions: in vivo.
The nature of data set [23]: Cmax in C57 mouse at 5 mg/kg, iv or 20 mg/kg, po. It counts as ADME, organism-based. The settings on record: in vivo.
Data set [24] deals with T2, Cytochrome P450 3A4. Description: Inhibition of CYP3A4 (unknown origin) using midazolam as substrate. In kind it is ADME.
The target in the next data set is Cytochrome P450 2D6 (Homo sapiens, UniProt P10635). Description: Inhibition of CYP2D6 (unknown origin) using dextromethorphan as substrate. It counts as ADME.
Sequence of Cytochrome P450 2D6 (P10635 whole entry): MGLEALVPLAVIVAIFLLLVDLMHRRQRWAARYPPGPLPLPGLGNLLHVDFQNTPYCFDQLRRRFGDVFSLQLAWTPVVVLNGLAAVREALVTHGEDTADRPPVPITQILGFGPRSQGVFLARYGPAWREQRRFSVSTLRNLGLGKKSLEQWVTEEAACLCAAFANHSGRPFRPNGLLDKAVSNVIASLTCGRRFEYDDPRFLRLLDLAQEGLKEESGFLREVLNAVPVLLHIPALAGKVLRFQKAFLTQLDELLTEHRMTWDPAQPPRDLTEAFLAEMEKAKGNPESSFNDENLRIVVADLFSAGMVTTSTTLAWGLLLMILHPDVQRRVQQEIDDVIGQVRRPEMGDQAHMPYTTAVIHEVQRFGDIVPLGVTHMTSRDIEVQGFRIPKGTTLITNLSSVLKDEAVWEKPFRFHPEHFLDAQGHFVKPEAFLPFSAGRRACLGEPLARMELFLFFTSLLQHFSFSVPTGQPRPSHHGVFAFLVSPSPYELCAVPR
The next data set has as its target Cytochrome P450 2C19 (Homo sapiens, UniProt P33261). As to the kind of experiment: Inhibition of CYP2C19 (unknown origin) using S-Mephenytoin as substrate. In kind it is ADME.
A short description of data set [25]: AUClast in Sprague-Dawley rat at 2 mg/kg, iv or 10 mg/kg, po. It counts as ADME, organism-based. The settings on record: in vivo.
Data set [26] in a line: Volume of distribution at steady state in Sprague-Dawley rat at 2 mg/kg, iv or 10 mg/kg, po. Conditions: in vivo, read-out: Vdss. In kind it is ADME, organism-based.
A short description of data set [27]: Protein binding in human plasma at 1 uM. It counts as ADME, cell-free. Conditions: read-out: PPB.
The nature of data set [28]: Half life in dog at 2 mg/kg, iv. It counts as ADME, organism-based, Canis lupus familiaris. Conditions: in vivo.
Data set [29] in a line: Oral bioavailability in C57 mouse at 20 mg/kg. In kind it is ADME, organism-based. Conditions: in vivo.
Data set [30] can be described thus: Stability in mouse liver microsomes assessed as parent compound remaining at 1 uM incubated for 10 mins. The settings on record: for remaining at 10 min, 1 µM: liver microsomes, read-out: Stability. It counts as ADME, Microsome.
The next data set addresses Cytochrome P450 2C9 (Homo sapiens, UniProt P11712). Description: Inhibition of CYP2C9 (unknown origin) using tolbutamide as substrate. It counts as ADME.
The target of a further data set is Glucagon receptor (Homo sapiens, UniProt P47871). Description: Inhibition of human full length GCGR transfected in HEK293 cells assessed as reduction in glucagon-induced cAMP response by LANCE TR-FRET assay. It counts as functional, cell-based.
Sequence of Glucagon receptor (P47871 whole entry): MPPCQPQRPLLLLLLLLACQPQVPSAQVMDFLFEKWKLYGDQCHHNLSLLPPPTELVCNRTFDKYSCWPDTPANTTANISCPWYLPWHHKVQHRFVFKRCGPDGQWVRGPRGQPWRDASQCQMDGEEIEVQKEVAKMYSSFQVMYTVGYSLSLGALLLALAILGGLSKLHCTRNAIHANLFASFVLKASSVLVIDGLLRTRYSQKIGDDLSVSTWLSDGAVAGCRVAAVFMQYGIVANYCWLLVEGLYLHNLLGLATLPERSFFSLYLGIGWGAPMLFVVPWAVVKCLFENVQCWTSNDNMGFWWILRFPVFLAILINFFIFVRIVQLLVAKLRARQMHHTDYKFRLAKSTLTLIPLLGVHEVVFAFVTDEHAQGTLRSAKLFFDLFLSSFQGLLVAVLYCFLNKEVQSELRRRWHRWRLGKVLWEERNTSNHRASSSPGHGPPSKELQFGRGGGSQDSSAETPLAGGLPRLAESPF
A short description of data set [31]: Volume of distribution at steady state in dog at 2 mg/kg, iv or 10 mg/kg, po. It counts as ADME, organism-based, Canis lupus familiaris. Conditions: in vivo, read-out: Vdss.

T2 sequence (P08684 whole entry): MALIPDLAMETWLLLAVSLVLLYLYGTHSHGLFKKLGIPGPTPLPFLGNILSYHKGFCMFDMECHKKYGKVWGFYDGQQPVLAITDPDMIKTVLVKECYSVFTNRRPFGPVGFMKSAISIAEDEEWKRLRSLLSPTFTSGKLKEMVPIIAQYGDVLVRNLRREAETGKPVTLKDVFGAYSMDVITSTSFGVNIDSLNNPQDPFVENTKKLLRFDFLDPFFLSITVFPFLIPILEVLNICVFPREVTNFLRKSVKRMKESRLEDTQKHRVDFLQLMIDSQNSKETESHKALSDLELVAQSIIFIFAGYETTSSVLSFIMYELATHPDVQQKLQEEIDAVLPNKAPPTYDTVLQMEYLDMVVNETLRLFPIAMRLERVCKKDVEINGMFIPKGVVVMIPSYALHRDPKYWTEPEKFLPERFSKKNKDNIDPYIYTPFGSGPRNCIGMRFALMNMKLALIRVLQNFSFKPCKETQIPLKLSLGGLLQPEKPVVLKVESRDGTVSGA
Sequence of Cytochrome P450 2C9 (P11712 whole entry): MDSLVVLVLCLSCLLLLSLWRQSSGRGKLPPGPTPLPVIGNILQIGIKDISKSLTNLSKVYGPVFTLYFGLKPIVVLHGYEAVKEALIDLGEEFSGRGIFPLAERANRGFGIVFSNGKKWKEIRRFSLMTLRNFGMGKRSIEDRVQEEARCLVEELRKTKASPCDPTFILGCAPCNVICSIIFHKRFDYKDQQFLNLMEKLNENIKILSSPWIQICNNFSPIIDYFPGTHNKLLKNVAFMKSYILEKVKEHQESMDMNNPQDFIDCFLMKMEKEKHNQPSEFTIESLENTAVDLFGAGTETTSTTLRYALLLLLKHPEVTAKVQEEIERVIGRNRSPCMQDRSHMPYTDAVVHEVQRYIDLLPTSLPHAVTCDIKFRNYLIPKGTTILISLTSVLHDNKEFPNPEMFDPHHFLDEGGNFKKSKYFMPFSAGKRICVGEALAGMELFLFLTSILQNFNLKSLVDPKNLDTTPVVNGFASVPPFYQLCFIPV
Sequence of Cytochrome P450 2C19 (P33261 whole entry): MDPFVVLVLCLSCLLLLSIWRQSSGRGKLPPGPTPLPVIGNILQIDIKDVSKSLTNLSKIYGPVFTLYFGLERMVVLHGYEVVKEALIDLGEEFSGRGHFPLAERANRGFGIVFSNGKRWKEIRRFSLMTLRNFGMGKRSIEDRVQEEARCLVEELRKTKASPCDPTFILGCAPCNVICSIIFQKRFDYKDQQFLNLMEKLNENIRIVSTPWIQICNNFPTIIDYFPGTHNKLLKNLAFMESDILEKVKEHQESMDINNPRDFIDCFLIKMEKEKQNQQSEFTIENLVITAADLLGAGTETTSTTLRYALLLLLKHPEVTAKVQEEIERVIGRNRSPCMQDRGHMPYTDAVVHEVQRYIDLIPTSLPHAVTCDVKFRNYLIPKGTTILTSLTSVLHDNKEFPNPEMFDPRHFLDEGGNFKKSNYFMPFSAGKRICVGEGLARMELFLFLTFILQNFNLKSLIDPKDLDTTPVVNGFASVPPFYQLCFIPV

As a reminder, the AUC(0-t) is exposure summed from dosing to a finite time, without extrapolation to infinity. Low values mean low exposure, high ones high exposure. As usually defined, the Ki is the equilibrium dissociation constant of an inhibitor or competing ligand from its target. For orientation: bioavailability means the share of a dose that reaches the circulation, judged against a reference dose that is usually intravenous. One may read the half-life as the time needed for the level to fall by half in the phase considered. The low end stands for rapid decline, the high end for slow decline. A word on the IC50: it is the concentration at which inhibition is half-maximal. Read a high IC50 as weaker potency. By Cmax is commonly meant the highest concentration seen after dosing. `Cc1c(-c2ccc(C(F)(F)F)cc2Cl)ccc2nn([C@@H](CC(C)C)c3ccc(C(=O)NCCC(=O)O)cc3)cc12`: the results for the clearance in data set [1], in [6] and in data set [18] were 26.5 mL/min/kg, 0.42 mL/min/kg and 10.2 mL/min/kg, respectively. Also, the inhibition result with Canis familiaris [2] and in the data set with Canis familiaris [8] was “Active” in each case. Also, the AUC(0-t) in data set [3] was 44.9 µM·h; in data set [11] it was 248 µM·h; in data set [25], 1.4 µM·h. In addition, the Ki was 90 nM in [4] and 23 nM on Glucagon receptor. For the same compound, the bioavailability in data set [5] is 35.7%; in data set [9] it was 13.2%; in data set [29] it was 78.6%. In addition, the half-life is 7.3 h in [7]; 2.8 h in [15]; 3.1 h in [16]; 1.9 h in data set [19]; 7.7 h in [22]; 5.5 h in data set [28]. For the same compound, the remaining at 10 min, 1 µM in [10] came to 107%; in data set [14], 75%; in data set [20], 118%; in data set [30], 97%. The IC50 against Cytochrome P450 1A2, against Cytochrome P450 3A4 [12], against Cytochrome P450 3A4 [24], at Cytochrome P450 2D6, on Cytochrome P450 2C19 and at Cytochrome P450 2C9 was > 10000 nM throughout. For the same compound, the Cmax in data set [13] was found to be 0.2 µM; in [21], 21.9 µM; in data set [23], 7.6 µM. The Vd in data set [17] is 2.24 L/kg; in data set [26] it was 2.46 L/kg; in data set [31], 0.17 L/kg. In addition, the fraction unbound at 1 µM in data set [27] was found to be 0.0001.
`CC(C)C[C@@H](c1ccc(C(=O)NCCC(=O)O)cc1)n1ncc2cc(-c3ccc(C(F)(F)F)cc3)ccc21`: on Glucagon receptor, the Ki came out at 460 nM.
Regarding `COc1c(-c2ccc(C(F)(F)F)cc2Cl)ccc2nn([C@@H](CC(C)C)c3ccc(C(=O)NCCC(=O)O)cc3)cc12`, the remaining at 10 min, 1 µM came out at 84% in data set [10], 76% in [14], 89% in data set [20] and 82% in data set [30].
Take `COc1c(-c2ccc(C(F)(F)F)cc2Cl)ccc2c1cnn2[C@@H](CC(C)C)c1ccc(C(=O)NCCC(=O)O)cc1`: the remaining at 10 min, 1 µM in data set [10] was determined as 97%; in data set [14], 64%; in [20], 93%; in data set [30], 87%.
`Cc1c(-c2ccc(C(F)(F)F)cc2Cl)ccc2c1cnn2[C@@H](CC(C)C)c1ccc(C(=O)NCCC(=O)O)cc1`: the figures for the remaining at 10 min, 1 µM in data set [10], in data set [14] and in data set [20] were 87%, 31% and 89%, respectively. For the same compound, the Stability in data set [30] (microsomes, 10 min, 1 µM) was 121%.
On to `CC(C)C[C@H](c1ccc(C(=O)NCCC(=O)O)cc1)n1ncc2cc(-c3ccc(C(F)(F)F)cc3)ccc21`, for which the Ki on Glucagon receptor came out at 96 nM.
